In patent US20150184166A1 (Uinversity of Iowa Research Foundation, priority 2012, published 2015):
Several values for one entry are separate records, joined by “and”; a condition that tells them apart may be missing. Equal values may be shown once. Read-outs that look alike come from different tables or passages of the source.

Assays:
NdmA-His6 = target: T1, NdmA-His6 (Pseudomonas putida, UniProt H9N289); test: Kinetic parameters of NdmA-His6 with His6-NdmD; format: biochemical, Pseudomonas putida CBB5; settings: for kcat / Km: NdmA-His6 plus His6-NdmD, pH 7.5, 30° C.
T1 sequence (H9N289 1-351): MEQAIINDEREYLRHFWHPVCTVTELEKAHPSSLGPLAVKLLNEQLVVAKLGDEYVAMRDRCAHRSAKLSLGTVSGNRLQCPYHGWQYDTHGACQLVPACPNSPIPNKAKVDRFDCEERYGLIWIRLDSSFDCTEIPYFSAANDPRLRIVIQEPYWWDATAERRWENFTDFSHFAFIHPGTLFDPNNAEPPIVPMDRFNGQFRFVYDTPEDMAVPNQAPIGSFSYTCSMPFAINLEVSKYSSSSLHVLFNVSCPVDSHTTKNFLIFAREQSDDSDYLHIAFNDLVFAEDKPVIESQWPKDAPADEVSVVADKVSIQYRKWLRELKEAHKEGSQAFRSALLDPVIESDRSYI
Protocol: (§1) Methylxanthine N-demethylase activity assay contained, in 1-ml total volume, 0.5 mM methylxanthine, 1 mM NADH, 50 μM Fe(NH4)2(SO4)2, and an appropriate amount of NdmA-His6 or NdmB-His6 (7.4 μg-2.5 mg protein depending on substrate specificity) in 50 mM KPi buffer (pH 7.5). Approximately 4 U of partially purified reductase, prepared as described previously (Summers et al., 2011) or 59 U of purified His6-NdmD was added to reaction mixture. Catalase from bovine liver (4,000 U) was also added to reactions containing His6-NdmD. The reaction mixture was incubated at 30° C. with 300 rpm shaking on an incubating microplate shaker (VWR, Radnor, Pa.). Periodically, a small aliquot was sampled from the reaction mixture and mixed with equal volume of acetonitrile for quantifying concentrations of methylxanthines and N-demethylated products by HPLC. One unit of N-demethylase activity was defined as the consumption of one […] methylxanthine per minute.
(§2) Apparent kinetic parameters of NdmA-His6 and NdmB-His6 were determined by measuring the initial rate of disappearance (vo) of methylxanthines in 50 mM KPi buffer (pH 7.5) at 30° C. The initial substrate concentrations ([S]) used in these experiments were from 25 to 500 μM. Substrates were incubated with His6-NdmD plus either NdmA-His6 or NdmB-His6 under standard conditions for 15 minutes. At 1, 5, 10, and 15 minutes, samples were removed from the reaction mixtures to quantitate substrate concentrations by HPLC. Plots of substrate concentrations against time were used to determine the initial rates of disappearance of substrates which were linear over 15 minutes. The apparent kinetic parameters were determined from Michaelis-Menten plots of vo against [S] fitted with the equation

NdmB-His6 = NdmB-His6 (Pseudomonas putida, UniProt H9N290); test: Kinetic parameters of NdmB-His6 with His6-NdmD; format: biochemical, Pseudomonas putida CBB5; settings: for Km / kcat: NdmB-His6 plus His6-NdmD, pH 7.5, 30° C.
Protocol: as §1, §2

NdmC = test: N-demethylation by NdmC fraction co-purified with reductase; format: biochemical, Pseudomonas putida CBB5
Source text: This activity was neither associated with NdmA nor with NdmB. […] Cloning of NdmC has proven difficult; nevertheless based on the fact that purified His6-NdmD had no activity on 7-methylxanthine, we annotate orf 8 as aanother RO with highly specific N-7 demthylase activity.

[1] = test system: cell extracts of P. putida CBB5; test: NADH-dependent N-demethylase activity of CBB5 cell extracts; format: biochemical, Pseudomonas putida CBB5; settings: 0.5 mM substrate, 7.2 mg mL^−1 protein
[2] = target: T2, Caffeine dehydrogenase (Cdh) (Pseudomonas sp., UniProt D7REY3); settings: cited from earlier work
T2 sequence (D7REY3 1-791): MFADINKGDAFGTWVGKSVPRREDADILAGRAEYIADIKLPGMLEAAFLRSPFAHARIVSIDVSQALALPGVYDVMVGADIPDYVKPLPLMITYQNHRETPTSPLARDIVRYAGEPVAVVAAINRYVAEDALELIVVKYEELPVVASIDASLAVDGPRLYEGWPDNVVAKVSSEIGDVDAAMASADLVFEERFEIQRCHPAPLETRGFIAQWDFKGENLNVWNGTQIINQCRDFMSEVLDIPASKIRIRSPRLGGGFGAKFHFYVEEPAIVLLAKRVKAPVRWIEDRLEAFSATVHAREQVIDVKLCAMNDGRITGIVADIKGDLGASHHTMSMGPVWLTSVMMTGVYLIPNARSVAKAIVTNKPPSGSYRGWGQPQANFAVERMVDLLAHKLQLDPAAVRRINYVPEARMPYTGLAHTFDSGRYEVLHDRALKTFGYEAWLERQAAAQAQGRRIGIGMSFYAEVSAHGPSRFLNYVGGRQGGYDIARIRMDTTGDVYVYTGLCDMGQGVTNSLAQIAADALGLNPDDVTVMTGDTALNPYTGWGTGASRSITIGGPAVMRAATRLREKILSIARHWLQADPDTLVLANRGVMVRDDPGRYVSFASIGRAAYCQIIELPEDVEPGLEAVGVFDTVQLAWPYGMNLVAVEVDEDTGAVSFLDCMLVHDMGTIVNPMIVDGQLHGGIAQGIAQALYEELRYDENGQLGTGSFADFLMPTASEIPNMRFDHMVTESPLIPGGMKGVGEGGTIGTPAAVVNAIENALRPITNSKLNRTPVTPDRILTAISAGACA
T2 sequence (D7REY4 1-295 partner): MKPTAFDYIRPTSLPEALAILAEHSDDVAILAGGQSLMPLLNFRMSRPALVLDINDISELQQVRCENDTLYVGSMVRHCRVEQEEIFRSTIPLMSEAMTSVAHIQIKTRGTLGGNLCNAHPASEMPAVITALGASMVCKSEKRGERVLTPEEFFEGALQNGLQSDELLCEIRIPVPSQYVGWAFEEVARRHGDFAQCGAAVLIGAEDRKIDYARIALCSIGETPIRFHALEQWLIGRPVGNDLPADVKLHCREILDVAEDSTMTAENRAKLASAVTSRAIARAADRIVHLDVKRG
T2 sequence (D7REY5 1-167 partner): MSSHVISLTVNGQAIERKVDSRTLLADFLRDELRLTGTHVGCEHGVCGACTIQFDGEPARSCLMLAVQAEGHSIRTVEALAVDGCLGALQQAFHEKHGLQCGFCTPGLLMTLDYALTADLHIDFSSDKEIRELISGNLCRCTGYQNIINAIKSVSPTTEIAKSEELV

[3] = target: Ndm (methylxanthine N-demethylase) with Ccr reductase (Pseudomonas putida, UniProt H9N289+H9N290); settings: for O-demethylation by Ndm: prolonged incubation
[4] = test system: Ndm (methylxanthine N-demethylase) with Ccr reductase
[5] = target: T3, Ndm, two-subunit N-demethylase component purified from Pseudomonas putida CBB5, H9N289
T3 chain 1: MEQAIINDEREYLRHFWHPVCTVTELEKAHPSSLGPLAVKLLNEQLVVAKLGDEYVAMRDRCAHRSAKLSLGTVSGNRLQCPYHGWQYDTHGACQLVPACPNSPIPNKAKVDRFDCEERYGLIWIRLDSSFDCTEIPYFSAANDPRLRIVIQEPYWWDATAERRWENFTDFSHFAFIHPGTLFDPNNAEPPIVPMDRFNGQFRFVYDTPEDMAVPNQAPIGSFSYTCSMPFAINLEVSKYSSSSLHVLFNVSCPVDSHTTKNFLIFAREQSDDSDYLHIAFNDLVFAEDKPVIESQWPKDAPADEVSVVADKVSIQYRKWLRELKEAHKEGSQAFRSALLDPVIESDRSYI
T3 chain 2: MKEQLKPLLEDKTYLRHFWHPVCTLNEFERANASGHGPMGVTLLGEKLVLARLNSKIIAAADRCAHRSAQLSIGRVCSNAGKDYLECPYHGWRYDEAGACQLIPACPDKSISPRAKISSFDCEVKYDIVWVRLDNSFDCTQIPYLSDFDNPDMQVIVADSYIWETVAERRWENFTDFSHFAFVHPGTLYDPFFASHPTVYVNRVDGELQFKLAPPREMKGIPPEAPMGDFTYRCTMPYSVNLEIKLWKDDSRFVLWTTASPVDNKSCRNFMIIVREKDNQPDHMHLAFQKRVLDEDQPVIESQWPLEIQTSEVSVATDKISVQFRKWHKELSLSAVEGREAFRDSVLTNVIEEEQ

## Cn1c(=O)[nH]c2nc[nH]c2c1=O [1-methylxanthine]
NdmA-His6
  kcat: 0.26 s⁻¹
NdmA-His6; read-out: Km
  Km: 267 µM
NdmB-His6
  N-demethylation activity of NdmB: no activity
  Km: ∞

## Cn1c(=O)[nH]c(=O)c2[nH]cnc21 [3-Methylxanthine, 3-methylxanthine]
NdmA-His6
  N-demethylation activity of NdmA: inactive
  Km: ∞
NdmB-His6
  kcat: 0.528 s⁻¹
NdmB-His6; read-out: Km
  Km: 22.4 µM

## Cn1c(=O)c2c(ncn2C)n(C)c1=O [Caffeine, 1,3,7-trimethylxanthine]
NdmA-His6
  kcat: 3.205 s⁻¹
NdmA-His6; read-out: Km
  Km: 37.6 µM
NdmB-His6
  kcat: 0.00383 s⁻¹
NdmB-His6; read-out: Km
  Km: 41.7 µM
NdmC
  N-demethylation by NdmC/reductase fraction: not N-demethylated
[1]
  degradation rate compared with paraxanthine: significantly slower
[2]; Yu et al., 2008
  Km: 3.7 ± 0.9 µM

## Cn1c(=O)[nH]c2ncn(C)c2c1=O [Paraxanthine, 1,7-dimethylxanthine]
NdmA-His6
  kcat: 2.215 s⁻¹
NdmA-His6; read-out: Km
  Km: 52.9 µM
NdmB-His6
  N-demethylation activity of NdmB: no activity
  Km: ∞
NdmC
  N-demethylation by NdmC/reductase fraction: not N-demethylated
[1]; 0.5 mM NADH
  time to complete utilization: about 20 minutes
[3]; after 13 minutes, 100 μM paraxanthine, 0.2 mg Ndm, 4 U Ccr
  paraxanthine N-demethylated: 60.2 µM
[4]; read-out: apparent KM, saturating Ccr, 50 μM Fe2+, 30° C., 50 mM KPi pH 7.5
  Km: 50.4 ± 6.8 µM
[4]; saturating Ccr, 50 μM Fe2+, 30° C., 50 mM KPi pH 7.5
  apparent kcat: 0.27 ± 0.01 s⁻¹

## Cn1cnc2c1c(=O)[nH]c(=O)n2C [Theobromine, 3,7-dimethylxanthine]
NdmA-His6
  N-demethylation activity of NdmA: inactive
  Km: ∞
NdmB-His6
  kcat: 0.772 s⁻¹
NdmB-His6; read-out: Km
  Km: 25.3 µM
NdmC
  N-demethylation by NdmC/reductase fraction: not N-demethylated
[1]
  degradation rate compared with paraxanthine: significantly slower
[2]
  Preference as a substrate, times less than caffeine: 50 times

## Cn1c(=O)c2[nH]cnc2n(C)c1=O [Theophylline, 1,3-dimethylxanthine]
NdmB-His6
  kcat: 0.0045 s⁻¹
NdmB-His6; read-out: Km
  Km: 169 µM
[1]
  degradation rate compared with paraxanthine: significantly slower
[2]
  activity of Cdh: no activity
  activity of Cdh in substrate specificity study: 5%

## COc1cc(C(=O)O)ccc1O [vanillate]
[3]
  O-demethylation by Ndm: did not catalyze O-demethylation

## COc1cc(C=O)ccc1O [vanillin]
[3]
  O-demethylation by Ndm: did not catalyze O-demethylation

## O=c1[nH]c(=O)c2[nH]cnc2[nH]1 [xanthine]
[4]; 90 minutes, 7.4 mU (7.4 units) of Ndm
  product formed from paraxanthine: 193.7 ± 4.0 µM and 193.7 ± 14.0 µM
[4]; from paraxanthine, after 13 minutes
  N-demethylation product present: ~20.3 µM
[2]
  activity of Cdh: no activity
  activity of Cdh in substrate specificity study: none

B1: Spinach ferredoxin reductase (protein)
chain: QIASDVEAPPPAPAKVEKHSKKMEEGITVNKFKPKTPYVGRCLLNTKITGDDAPGETWHMVFSHEGEIPYREGQSVGVIPDGEDKNGKPHKLRLYSIASSALGDFGDAKSVSLCVKRLIYTNDAGETIKGVCSNFLCDLKPGAEVKLTGPVGKEMLMPKDPNATIIMLGTGTGIAPFRSFLWKMFFEKHDDYKFNGLAWLFLGVPTSSSLLYKEEFEKMKEKAPDNFRLDFAVSREQTNEKGEKMYIQTRMAQYAVELWEMLKKDNTYFYMCGLKGMEKGIDDIMVSLAAAEGIDWIEYKRQLKKAEQWNVEVY
[5]
  N-demethylase activity: Ndm did not couple with ferredoxin reductase plus ferredoxin from spinach

B2: Reductase component of Pseudomonas sp. 9816 naphthalene dioxygenase (protein)
chain: MELLIQPNNRIIPFSAGANLLEVLRENGVAISYSCLSGRCGTCRCRVIDGSVIDSGAENGQSNLTDKQYVLACQSVLTGNCAIEVPEADEIVTHPARIIKGTVVAVESPTHDIRRLRVRLSKPFEFSPGQYATLQFSPEHARPYSMAGLPDDQEMEFHIRKVPGGRVTEYVFEHVREGTSIKLSGPLGTAYLRQKHTGPMLCVGGGTGLAPVLSIVRGALKSGMTNPILLYFGVRSQQDLYDAERLHKLAADHPQLTVHTVIATGPINEGQRAGLITDVIEKDILSLAGWRAYLCGAPAMVEALCTVTKHLGISPEHIYADAFYPGGI
[5]
  N-demethylase activity: Ndm did not function in the presence of the reductase and ferredoxin components of Pseudomonas sp. 9816 naphthalene dioxygenase
